Assay results reported in publication PMC7290864, “Allosteric Antagonism of the A2A Adenosine Receptor by a Series of Bitopic Ligands” (Cells, 2020).

Legend:
human A2AAR [1] = molecular target: T1, human A2AAR (Homo sapiens, UniProt P29274); experiment: [^3H]CGS21680 radioligand binding, HEK293 membranes; conditions: for [^3H]CGS21680 binding, percent effect of the fluorophore amide alone: at a concentration of 10 µM; for Ki: 5 nM [^3H]CGS21680, membranes, 25 °C, 60 min
T1 construct: expressed in transfected cells; host or cells: HEK293 cells stably expressing the human A2AAR
T1 sequence (P29274 whole entry): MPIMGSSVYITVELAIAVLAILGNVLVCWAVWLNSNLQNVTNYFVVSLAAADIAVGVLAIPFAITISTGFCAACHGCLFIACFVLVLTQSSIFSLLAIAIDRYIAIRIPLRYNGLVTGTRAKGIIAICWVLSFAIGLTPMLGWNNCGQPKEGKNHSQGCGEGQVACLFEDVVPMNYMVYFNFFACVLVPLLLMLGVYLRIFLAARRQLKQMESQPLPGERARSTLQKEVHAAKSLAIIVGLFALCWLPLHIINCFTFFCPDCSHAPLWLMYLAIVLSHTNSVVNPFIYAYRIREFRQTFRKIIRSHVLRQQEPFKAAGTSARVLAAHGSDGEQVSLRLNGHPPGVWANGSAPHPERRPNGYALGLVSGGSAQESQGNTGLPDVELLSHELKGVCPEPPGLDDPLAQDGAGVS
Procedure: (§1) HEK293 cells expressing the human A2AAR were cultured in DMEM supplemented with 10% fetal bovine serum, 100 Units/mL penicillin, 100 µg/mL streptomycin and 2 µmol/mL glutamine. To prepare cell membranes, cells were detached from plates by scraping into PBS and centrifuged at 250× g for 5 min. The resulting pellets were re-suspended in ice-cold Tris-HCl buffer (50 mM, pH 7.4) and homogenized. After homogenization and suspension, cells were first centrifuged at 1000× g for 10 min and the pellet was discarded. The suspension was then re-centrifuged at 20,000× g for 60 min at 4 °C. The pellets were re-suspended, split into aliquots and stored at −80 °C. The protein concentration was measured using the Bradford assay.
(§2) Radioligand binding assays were performed using membranes prepared from HEK293 cells expressing human the A2AAR using both agonist and antagonist radioligands as previously described. […] (5 nM) or [^3H]ZM241385 (1 nM) and membrane preparations (20 μg protein) at 25 °C for 60 min in a total of 200 μL of Tris-HCl buffer (50 mM, pH 7.5) containing 10 mM MgCl2. […] Binding reactions were terminated by filtration through Whatman GF/B filters under reduced pressure using an MT-24 cell harvester (Brandell, Gaithersburg, MD, USA) followed by washing twice with 5 mL of cold Tris-HCl buffer.
(§3) Functional parameters were calculated using Prism 8.1.0 software (GraphPAD, San Diego, CA, USA). Data were expressed as mean ± standard error. Data were analyzed by analysis of variance (ANOVA) followed by post hoc analysis to check the statistical difference among groups with p < 0.05 being considered significant.

human A2AAR [2] = molecular target: T1, human A2AAR; experiment: Fluorescent ligand MRS7416 binding to intact HEK293 cells (flow cytometry); conditions: for Ki: displacement of 15 nM fluorescent MRS7416, intact cells, 37 °C, 60 min; for Times weaker in displacing MRS7416 binding than radioligand binding: fluorescent versus radioligand Ki
Procedure: Cells were plated in 96-well plates and grow overnight. In saturation binding experiments with fluorescent antagonist MRS7416, various concentrations were incubated in cell culture medium with control HEK293 cells or HEK293 cells expressing the A2AAR for 60 min at 37 °C in an atmosphere containing 5% CO2. […] At the end the reaction, the medium was removed, and cells were washed twice with PBS. After washing, 0.2 mL 0.1% EDTA solution was added to each well, and cells were incubated at 37 °C for 10 min. Following cell detachment and mixing of cells, the intensity of fluorescence emission of each sample was measured by using flow cytometry as previously described. […] Samples were maintained in the dark during the analysis to avoid photobleaching. Mean fluorescence intensity (MFI) was determined in the FL-1 channel in log mode. Ten thousand events were analyzed per sample. Data were collected using Cell Quest Pro software (BD, Franklin Lakes, NJ, USA) and analyzed by Cyflogic v. 1.2.1 software (CyFlo, Ltd., Turku, Finland).

D52N mutant A2AAR = molecular target: T2, D52N mutant A2AAR (Homo sapiens, UniProt P29274, D52N); experiment: [^3H]ZM241385 binding to D52N mutant A2AAR expressed in HEK293 cells; conditions: for Ki: 1 nM [^3H]ZM241385
T2 construct: expressed in transfected cells; host or cells: HEK293 cells
T2 sequence (P29274 whole entry D52N): as the sequence (P29274 whole entry) above, with D52N counted along it
Procedure: as §2
Here we examined if HMA and MRS7396 behave in a similar manner or not.
Data were from three independent experiments performed in duplicate.

human A2AAR [3] = molecular target: T1, human A2AAR; experiment: cAMP accumulation assay, antagonism of CGS21680 with Schild analysis; format: cell-based; conditions: for Kb / Functional Antagonism Slope (Schild): Schild analysis, CGS21680-induced cAMP; for Kb: antagonist pretreatment 20 min, read-out: Functional Antagonism KB; for Functional Antagonism Slope (Schild): linear part of plot only for XAC630, MRS7396, HMA; for Pattern of A2AAR antagonism: from functional antagonism and Schild analysis
Procedure: HEK293 cells stably expressing the human A2AAR were seeded in 96-well plates and incubated in 100 µL medium at 37 °C overnight. The medium was removed the following day and cells were then treated with assay buffer containing rolipram (10 μM) and antagonists for 20 min followed by the addition of agonists, and then incubated for 20 min. The reaction was terminated upon removal of the supernatant and addition of 100 µL Tween-20 (0.3%). Intracellular 3′,5′-cyclic adenosine monophosphate (cAMP) levels were measured with an ALPHAScreen cAMP assay kit as instructed by the manufacturer (PerkinElmer, Boston, MA, USA).
as §3
To examine and analyze mechanistically the patterns of functional antagonism by various antagonists of different chemical entities, cells expressing relatively low A2AAR levels with minimal signaling amplification were used, as recommended, since receptor overexpression is related to the constitutive activity, and signaling amplification has been linked to changing the patterns of antagonism.

A2AAR D52A mutation = tested on: A2AAR D52A mutation; parameters: method as in Massink et al. [10],[11]; conditions: ref Massink et al. [10],[11]; cited from earlier work
human A2AAR [4] = molecular target: T1, human A2AAR; experiment: [^3H]ZM241385 radioligand binding, HEK293 membranes; conditions: for Ki: WT receptor, 1 nM [^3H]ZM241385, membranes, 25 °C, 60 min
Procedure: as §1, §2, §3

Row | [^3H]CGS21680 binding, percent effect of the fluorophore amide alone (human A2AAR [1]) [%] | Ki (human A2AAR [2]) [nM] | Times weaker in displacing MRS7416 binding than radioligand binding (human A2AAR [2]) | Ki (human A2AAR [1]) [nM] | Kb (human A2AAR [3]) [nM] | Functional Antagonism Slope (Schild) (human A2AAR [3]) | Ki (human A2AAR [4]) [nM] | Fold weaker at WT than at the D52N mutant receptor (D52N mutant A2AAR; [^3H]ZM241385 binding) | Pattern of A2AAR antagonism (human A2AAR [3]) | Fold more potent in binding in comparison to MRS7416 (human A2AAR [4]; radioligand binding) [fold] | Kd (human A2AAR [2]; saturation binding, intact cells, n = 6, read-out: Kd value from MRS7416 saturation experiments) [nM] | Compound | Ki (D52N mutant A2AAR) [nM] | Fold affinity decrease at D52N versus WT (D52N mutant A2AAR; [^3H]ZM241385 binding) [fold] | Fold decrease of affinity by D52A mutation (A2AAR D52A mutation)
1 |  | 152 ± 29 |  | 220 ± 36 | 280 ± 33 | 0.68 ± 0.04 | 198 ± 33 |  | allosteric A2AAR antagonists |  |  | CCCn1c(=O)c2[nH]c(-c3ccc(OCC(=O)NCCNC(=O)CCNC(=O)CCCCNC(=O)CCCCCN)cc3)nc2n(CCC)c1=O [XAC245] |  |  | 
2 |  |  |  | 438 ± 110 | 650 ± 120 | 1.03 ± 0.05 | 388 ± 62 |  | antagonized competitively |  |  | CCCn1c(=O)c2[nH]c(-c3ccc(OCC(=O)NCCNC(=O)CCNC(=O)CCCCNC(=O)CCCCCNC(=O)c4ccc(-c5c6ccc(=N)c(S(=O)(=O)O)c-6oc6c(S(=O)(=O)O)c(N)ccc56)c(C(=O)O)c4)cc3)nc2n(CCC)c1=O [XAC488] |  |  | 
3 |  | 692 ± 173 | 9–100 times | 29 ± 5.7 | 51.1 ± 12.2 | 0.47 ± 0.04 | 36.6 ± 10.1 |  | allosteric A2AAR antagonists |  |  | CCCn1c(=O)c2[nH]c(-c3ccc(OCC(=O)NCCNC(=O)CCCCCNC(=O)COc4ccc(/C=C/C5=[N+]6C(=Cc7ccc(-c8cccs8)n7[B-]6(F)F)C=C5)cc4)cc3)nc2n(CCC)c1=O [XAC630, reference compound] |  |  | 

The remaining lines, values behind:

Row | Compound | [^3H]CGS21680 binding, percent effect of the fluorophore amide alone (human A2AAR [1]) [%] | Ki (human A2AAR [2]) [nM] | Times weaker in displacing MRS7416 binding than radioligand binding (human A2AAR [2]) | Ki (human A2AAR [1]) [nM] | Kb (human A2AAR [3]) [nM] | Functional Antagonism Slope (Schild) (human A2AAR [3]) | Ki (human A2AAR [4]) [nM] | Fold weaker at WT than at the D52N mutant receptor (D52N mutant A2AAR; [^3H]ZM241385 binding) | Pattern of A2AAR antagonism (human A2AAR [3]) | Fold more potent in binding in comparison to MRS7416 (human A2AAR [4]; radioligand binding) [fold] | Kd (human A2AAR [2]; saturation binding, intact cells, n = 6, read-out: Kd value from MRS7416 saturation experiments) [nM] | Ki (D52N mutant A2AAR) [nM] | Fold affinity decrease at D52N versus WT (D52N mutant A2AAR; [^3H]ZM241385 binding) [fold] | Fold decrease of affinity by D52A mutation (A2AAR D52A mutation)
4 | N=c1ccc2c(-c3ccc(C(N)=O)cc3C(=O)O)c3ccc(N)c(S(=O)(=O)O)c3oc-2c1S(=O)(=O)O [AF488-amide] | 3.7 ± 1.2 |  |  |  |  |  |  |  |  |  |  |  |  | 
5 | NC(=O)CCCCCNC(=O)COc1ccc(/C=C/C2=[N+]3C(=Cc4ccc(-c5cccs5)n4[B-]3(F)F)C=C2)cc1 [BY630-amide] | 2.6 ± 1.5 |  |  |  |  |  |  |  |  |  |  |  |  | 
6 | NC(N)=NC(=O)c1nc(Cl)c(N2CCCCCC2)nc1N [HMA, 5-(N,N-hexamethylene)amiloride, reference compound] |  | 18500 ± 2800 | 9–100 times | 2120 ± 510 | 3810 ± 450 | 0.59 ± 0.05 | 3050 ± 1210 |  |  |  |  | 15800 | 5 | over 10 fold
7 | N#Cc1c(N)nc(SCc2ncc[nH]2)c(C#N)c1-c1ccc(O)cc1 [LUF5834, 2-amino-4-(4-hydroxyphenyl)-6-[(1H-imidazol-2-ylmethyl)thio]-3,5-pyridinecarbonitrile, reference compound] |  | 23 ± 4.6 |  |  |  |  | 13.3 ± 6.5 |  |  |  |  |  |  | 
8 | Nc1nc2c(cnn2CCCc2ccc(OCc3ccc(S(=O)(=O)O)cc3)cc2)c2nc(-c3ccco3)nn12 [MRS7352] |  | 5.28 ± 1.31 |  | 4.98 ± 1.13 | 6.61 ± 0.88 | 0.88 ± 0.06 | 6.24 ± 2.42 |  |  |  |  |  |  | 
9 | Nc1nc2c(cnn2CCCc2ccc(OCC(=O)NCCCCNC(=O)CCCCCNC(=O)COc3ccc(/C=C/C4=[N+]5C(=Cc6ccc(-c7cccs7)n6[B-]5(F)F)C=C4)cc3)cc2)c2nc(-c3ccco3)nn12 [MRS7396] |  | 256 ± 33 | 9–100 times | 2.83 ± 0.2 | 1.7 ± 0.34 | 0.42 ± 0.02 | 2.34 ± 0.33 | ~ 3 fold | allosteric A2AAR antagonists | 10 |  | 0.79 ± 0.23 |  | 
10 | N=c1ccc2c(-c3ccc(C(=O)NCCCCNC(=O)COc4ccc(CCCn5ncc6c5nc(N)n5nc(-c7ccco7)nc65)cc4)cc3C(=O)O)c3ccc(N)c(S(=O)(=O)O)c3oc-2c1S(=O)(=O)O [MRS7416] |  |  |  | 16.4 ± 1.6 | 9.11 ± 1.77 | 0.68 ± 0.03 | 23.8 ± 5.6 |  | allosteric A2AAR antagonists |  | 17.6 ± 4.1 |  |  | 
